Assay results as given in publication PMC6796659, “Topoisomerase IB poisons induce histone H2A phosphorylation as a response to DNA damage in Leishmania infantum” (International Journal for Parasitology: Drugs and Drug …, 2019).

How the values were obtained:
human Top IB (hTopIB) = biological target: T1, human Top IB (hTopIB) (Homo sapiens, UniProt P11387); experiment: Relaxation of supercoiled pSK DNA by recombinant hTopIB; type: biochemical; conditions: Table 1
T1 construct: made in house
T1 sequence (P11387 1-765): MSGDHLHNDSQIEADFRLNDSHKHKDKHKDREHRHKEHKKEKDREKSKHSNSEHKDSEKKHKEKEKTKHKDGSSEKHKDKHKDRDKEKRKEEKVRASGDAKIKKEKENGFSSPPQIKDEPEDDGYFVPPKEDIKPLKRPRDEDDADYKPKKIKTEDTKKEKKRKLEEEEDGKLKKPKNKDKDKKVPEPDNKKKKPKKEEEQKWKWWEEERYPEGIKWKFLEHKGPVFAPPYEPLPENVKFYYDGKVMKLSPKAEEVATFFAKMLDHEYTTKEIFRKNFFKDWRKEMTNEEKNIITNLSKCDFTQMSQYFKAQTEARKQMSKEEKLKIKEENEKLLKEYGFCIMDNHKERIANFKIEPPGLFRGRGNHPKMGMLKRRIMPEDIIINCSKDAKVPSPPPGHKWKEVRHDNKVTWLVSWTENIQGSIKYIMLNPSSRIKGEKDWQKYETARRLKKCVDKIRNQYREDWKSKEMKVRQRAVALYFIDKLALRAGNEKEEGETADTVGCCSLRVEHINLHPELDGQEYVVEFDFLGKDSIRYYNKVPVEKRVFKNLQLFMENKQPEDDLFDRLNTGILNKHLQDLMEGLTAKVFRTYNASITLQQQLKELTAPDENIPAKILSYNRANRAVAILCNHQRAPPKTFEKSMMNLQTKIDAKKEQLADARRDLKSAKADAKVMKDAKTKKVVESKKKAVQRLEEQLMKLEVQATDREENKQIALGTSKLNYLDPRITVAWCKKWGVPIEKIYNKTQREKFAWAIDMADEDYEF
Procedure: Expression and purification of LTopIB and hTopIB were carried out according to a previously standardized protocol ([Villa et al., 2003]). The effect of indenoisoquinolines (compounds 1 to 20) on recombinant LTopIB and hTopIB was determined by measuring the relaxation of negatively supercoiled pBluescript-SK DNA plasmid (pSK). Briefly, in a total volume of 20 μL, 100 U of recombinant TopIB were incubated with 0.5 μg of pSK DNA in 10 mM Tris-HCl buffer (pH 7.5), 5 mM MgCl2, 5 mM dithiothreitol (DTT), 0.1 mM EDTA, […] bovine serum albumin, and 150 mM KCl. Different concentrations of indenoisoquinolines were also added. Following a 4-min incubation period at 25 °C, reactions were stopped with 1% (w/v) SDS, and incubated for one extra hour at 37 °C in the presence of 1 mg/mL proteinase K. Subsequently, samples were extracted with 1 vol phenol-chloroform mixture and were loaded on a 1% agarose gel containing 0.1 μg/mL ethidium bromide. The gel was run for 16 h at 4 V/cm, and the images were acquired using a G-Box system (Syngene, United Kingdom).

[1] = tested on: L. infantum promastigotes; experiment: Cell cycle analysis by flow cytometry (propidium iodide); type: cell-based, Leishmania infantum; conditions: 1 μM single dose, 0, 8, 24, 48 h
Procedure: One million promastigotes untreated or treated with 1 μM of different indenoisoquinolines were harvested by centrifugation after 0, 8, 24 and 48 h exposure. Promastigotes were washed twice with PBS and fixed by 1 h incubation with 70% methanol at 4 °C. After incubation, cells were centrifuged, washed again with PBS and resuspended in 0.5 mL of citrate buffer (45 mM MgCl2, 20 mM MOPS, 30 mM sodium citrate, 0.1% Triton X-100, pH = 7). Finally, samples with RNAase (50 μg/mL) and propidium iodide ([…]) were incubated at 37 °C during 30 min and analyzed at 589 nm by flow cytometry (Cyan ADP Dako).

[2] = tested on: histone H2A (Thr128) in L. infantum promastigotes; experiment: Histone H2A phosphorylation (γH2A) by Western blot; type: cell-based, Leishmania infantum; conditions: 10 μM, 0, 15, 60, 120 min
Procedure: To detect H2A phosphorylation by L. infantum promastigotes, parasites in exponential growing phase (5–6 x 10^6 cells/mL) were incubated at 26 °C with CPT derivatives and indenoisoquinolines at a final concentration in the supplemented 199 standard medium of 10 μM. Control cells were treated with the drug vehicle DMSO using concentrations below 0.1%. After 0, 15, 60 and 120-min incubations, promastigotes were harvested by centrifugation, washed twice in PBS and the pellet resuspended in lysis buffer containing 50 mM Tris (pH:7), 50 mM NaCl, 20 mM NaF, 0.1% Tween 20 and 2x protease inhibitors (PIERCE™ protease inhibitor mini tablets). Twenty micrograms of the different extracts were loaded onto 15% SDS-PAGE gels, electrophoresed and transferred to PVDF membranes (Immobilon-FL, Millipore) using a mini trans-blot electrophoretic transfer cell (Bio-Rad). Polyclonal γH2A antisera were used at a 1:2000 dilution and secondary goat anti-rabbit IgG IRDye680 (Li-Cor Biosciences) was used at a 1:15000 dilution. The peptide competition assay was done incubating the polyclonal γH2A antisera with 50 ng/mL of the appropriate peptide (with and without phosphorylation at Thr residue) in blocking buffer for 1 h at room temperature before blotting. Loading control was performed using a monoclonal α tubulin mouse antibody at 2 μg/mL (final concentration) and a goat anti-mouse IgG IRDye 800 (Li-Cor Biosciences) as secondary antibody. Bands were visualized in an Odissey® (Li-Cor Biosciences) infrared detection facility. The quantification of γH2A signal was done with Bio-Rad Quantity One Analysis Software.

[3] = tested on: TopIB-DNA complexes in L. infantum promastigotes; experiment: SDS/K-DNA precipitation (in situ cleavage complex formation); type: cell-based, Leishmania infantum; conditions: highest concentration 30 μM, 30 min, data not shown
Procedure: In order to measure the fragmentation of DNA induced by Top poisons, L. infantum promastigotes, previously labeled with 0.5 mCi/mL [2–^14C] thymidine for 24 h, were exposed to different concentrations of indenoisoquinolines for 30 min, followed by precipitation with SDS/KCl, according to the method described previously ([Balaña-Fouce et al., 2012]). DNA fragmentation was determined as the percentage of total labeled DNA, and was calculated as follows: [(dpm in SDS/KCl drug - dpm in SDS/KCl solvent)/(dpm total incorporation)] x 100. Each experiment was run at least in triplicate.

Structure (SMILES): NCCCn1c2c(c3ccccc3c1=O)C(=O)c1ccccc1-2 [Compound 2]
- hTopIB inhibition (human Top IB (hTopIB)): ++ (inhibition at 10 μM)
- effect on cell cycle of promastigotes [1]: did not arrest the cell cycle
- γH2A signal (H2A phosphorylation), Western blot [2]: strong γH2A signaling
- protein-DNA complexes (SDS/K-DNA precipitable) [3]: 10%
